Results published in patent US20080280933A1, “BENZIMIDAZOLYL COMPOUNDS” (priority 2006, published 2008).
pEC50: −log10 of the molar value. Read-outs that look alike come from different tables or passages of the source.

Target: T1, mGluR2 receptor (metabotropic glutamate receptor 2) (Homo sapiens, UniProt Q14416)
T1 construct: expressed in transfected cells
Assay: mGluR2 Potentiator Screen, FLIPR, EC10-EC20 glutamate challenge
Type: cell-based
Settings: for EC50: EC50 (uM); for pEC50: read-out: EC50
Description: Procedure for mGluR2 Potentiator Screen NLB Methods EC10-EC20 Challenge Cell Culture and Plating:
Cells used for this screen are HEK cells stably transfected with the mGluR2 receptor (metabotropic glutamate receptor 2) and the Gα15 G protein. Clones were identified by functional activity (FLIPR). Cells are grown in growth media containing: DMEM High Glucose with Glutamine and Na Pyruvate (GIBCO), 10% (v/v) Heat inactivate FBS (GIBCO) G418 500 ug/ml (from 50 mg/ml stock) (GIBCO) and Blasticidin 3 ug/ml (from 5 mg/ml stock made in H2O) (Invitrogen).
2 days before the assay cell are trypsinized with 0.25% trysin/EDTA (GIBCO), spun down at 1000 rpm for 5 minutes, resuspended in growth media and plated on polystyrene 384 well black wall/clear bottom poly-D-lysine coated plates at a density of approximately 18,000 cells/well in a volume of 50 μL per well. One day before the assay the growth media is removed from the plates by flicking and replaced with media containing DMEM High Glucose without Glutamine and Na Pyruvate (GIBCO) and 10% (v/v) dialyzed FBS (GIBCO). The reason for the removal of glutamine the day before the assay is to minimize the amount of glutamate that will be present during the assay, as endogenous glutarnate released from the cells can reduce the fluorescent response and interfere with the FLIPR screen.
FLIPR Methods and Data Analysis:
On the day of the assay, the FLIPR assay is performed using the following methods:
The pH is adjusted to 7.4 with 1M NaOH. Prepare a 2 mM (approx.) stock solution of Fluo-4.am (Molecular Probes) dye in DMSO −22 μl DMSO per 50 ug vial (440 μL per 1 mg vial). Make a 1 mM (approx.) flou-4, PA working solution per vial by adding 22 μl of 20% pluronic acid (PA) (Molecular Probes) in DMSO to each 50 ug vial (440 μL per 1 mg vial). Prepare a 250 mM Probenecid (Sigma) stock solution by dissolving 0.71 g into 5 ml 1N NaOH and 5 ml assay buffer (for each liter of assay wash buffer). Make 4 uM (approx.) dye incubation media by adding 2.50 ug vials per 11 ml DMEM high glucose without glutamine (220 ml per 1 mg vial). Add 110 μL probenecid stock per 11 ml (2.5 mM final [concentration]). To the dye media add 3 units/ml of glutamic-pyruvic transaminase (GPT, Sigma) and 3 mM Na Pyruvate. The assay has worked with dye concentrations from 2 uM to 8 uM dye as well. To the assay buffer from drug preparation, add 1.83 mls DMSO and 400 μL. 15.8% P104 (from New Leads biology) per liter for final concentrations of 0.18% DMSO and 0.006% P104. To the assay buffer for cell washing, add probenecid in the same manner and concentration that was used for the dye media.
Remove growth media from cell plates by flicking. Add 50 μl/well dye solution. Incubate 1 hour at 37° C. and 5% CO2. Remove dye solution and wash 3 times with assay buffer+probenecid (100 μl probenecid stock per 10 ml buffer), leaving 30 μL/well assay buffer. Wait at least 10-15 minutes. Compounds and agonist challenge additions are performed with the FLIPR. The in addition is for test compounds, which are added as 15 μL of 4× [concentration] of potentiator. The second 2nd addition is 15 μL of 4× [concentration] of agonist or challenge. This achieves 1× concentration of all compounds only after 2nd addition. The 1st and 2nd additions are performed separately using the FLIPR, which give 2 different data files. Compounds are pretreated at least 30 minutes before agonist addition.
Results are analyzed by dividing the peak fluorescent value of the FLIPR response by the […] to achieve a ratio response. The ratios are then analyzed by curve fitting programs. Since potent compounds can give an inverted U dose response curve (due to effects on endogenous glutamate by the potentiators) points are deleted at concentrations higher than the concentration that gives the maximum effect. Maximum values for dose response curves (forced fitting) are derived from standards on the plate.
Compound Preparation and Glutamate Challenge: […]

T1 sequence (Q14416 19-872, species assumed): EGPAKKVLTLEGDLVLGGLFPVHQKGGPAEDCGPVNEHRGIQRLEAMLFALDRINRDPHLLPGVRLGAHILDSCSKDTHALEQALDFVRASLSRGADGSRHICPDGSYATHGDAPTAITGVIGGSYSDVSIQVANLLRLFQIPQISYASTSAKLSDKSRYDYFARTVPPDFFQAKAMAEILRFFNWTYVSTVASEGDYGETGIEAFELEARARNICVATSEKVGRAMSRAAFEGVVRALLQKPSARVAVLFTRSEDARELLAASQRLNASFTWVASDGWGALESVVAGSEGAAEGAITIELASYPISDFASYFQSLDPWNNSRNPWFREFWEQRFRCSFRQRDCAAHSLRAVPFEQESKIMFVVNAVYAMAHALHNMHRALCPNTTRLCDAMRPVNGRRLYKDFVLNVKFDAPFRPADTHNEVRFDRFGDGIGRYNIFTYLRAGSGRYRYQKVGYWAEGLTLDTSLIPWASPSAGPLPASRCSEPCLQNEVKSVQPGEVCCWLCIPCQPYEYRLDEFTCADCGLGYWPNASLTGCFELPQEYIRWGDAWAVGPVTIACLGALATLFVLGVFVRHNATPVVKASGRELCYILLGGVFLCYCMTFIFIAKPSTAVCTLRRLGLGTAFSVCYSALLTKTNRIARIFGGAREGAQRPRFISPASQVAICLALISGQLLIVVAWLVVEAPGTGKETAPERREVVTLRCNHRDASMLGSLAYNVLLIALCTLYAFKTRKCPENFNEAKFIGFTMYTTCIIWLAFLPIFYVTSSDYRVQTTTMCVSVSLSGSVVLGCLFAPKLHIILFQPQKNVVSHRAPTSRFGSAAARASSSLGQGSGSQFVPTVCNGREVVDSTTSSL

Row | Compound | EC50 [µM] | pEC50
1 | COc1cccc(C2(C#N)CCN(Cc3nc4ccccc4n3C)CC2)c1 [compound 72] | 10.6 | 
2 | CCC(=O)C1(c2ccccc2)CCN(Cc2nc3ccccc3n2C)CC1 [compound 73] | 3.97 | 
3 | Cn1c(CN2CCC(c3ccccc3)CC2)nc2ccccc21 [compound 74] |  | 6.67
4 | Cn1c(CN2CCC(O)(c3ccc(Br)cc3)CC2)nc2ccccc21 [compound 75] |  | < 5.13
5 | Cn1c(CN2CCC(O)(c3ccc(Cl)cc3)CC2)nc2ccccc21 [compound 76] |  | < 5.24
6 | Cn1c(CN2CCC(C#N)(c3ccccc3)CC2)nc2ccccc21 [compound 77] | > 4.71 | 
7 | CC(C)Oc1ccccc1C1CCN(Cc2nc3ccccc3n2C)CC1 [compound 78] |  | 6.32
8 | Cn1c(CN2CCC(c3ccccc3F)CC2)nc2ccccc21 [compound 79] |  | 7.68
9 | C[C@@H]1CN(Cc2nc3ccccc3n2C)CC[C@]1(C)c1cccc(NS(C)(=O)=O)c1 [compound 80] |  | < 5.90
10 | COC(=O)c1cccc([C@]2(C)CCN(Cc3nc4ccccc4n3C)C[C@@H]2C)c1 [compound 81] |  | 5.22
11 | CC1CN(Cc2nc3ccccc3n2C)CC(C)C1(O)c1ccccc1 (stereo not shown) [compound 82] |  | < 5.13
12 | C[C@@H]1CN(c2cccc(C3CCN(Cc4nc5ccccc5n4C)CC3)c2)C[C@H](C)O1 [compound 83] |  | 6.09
13 | Cn1c(CN2CCC(c3ccccc3OCC3CCC3)CC2)nc2ccccc21 [compound 84] |  | 6.13
14 | CC1CN(CCOc2ccccc2C2CCN(Cc3nc4ccccc4n3C)CC2)CC(C)O1 (stereo not shown) [compound 85] |  | 5.86
15 | Cn1c(CN2CCC(c3ccccc3OCC3CCCC3)CC2)nc2ccccc21 [compound 86] |  | 5.64
16 | CC(C)OCCOc1ccccc1C1CCN(Cc2nc3ccccc3n2C)CC1 [compound 87] |  | 6.21
17 | CN(C)CCCOc1ccccc1C1CCN(Cc2nc3ccccc3n2C)CC1 [compound 88] |  | 5.38
18 | CCOCCOc1ccccc1C1CCN(Cc2nc3ccccc3n2C)CC1 [compound 89] |  | 5.76
19 | CCOCCCOc1ccccc1C1CCN(Cc2nc3ccccc3n2C)CC1 [compound 91] |  | 5.85
20 | Cn1c(CN2CCC(c3ccccc3OCCC3CC3)CC2)nc2ccccc21 [compound 92] |  | < 5.49
21 | CCCCCOc1ccccc1C1CCN(Cc2nc3ccccc3n2C)CC1 [compound 93] |  | 6.49
22 | CC[C@H](C)COc1ccccc1C1CCN(Cc2nc3ccccc3n2C)CC1 [compound 94] |  | 5.79

Row | Compound | EC50 [µM] | pEC50
23 | CCCCOc1ccccc1C1CCN(Cc2nc3ccccc3n2C)CC1 [compound 95] |  | 5.98
24 | CC(C)COc1ccccc1C1CCN(Cc2nc3ccccc3n2C)CC1 [compound 96] |  | < 5.41
25 | Cn1c(CN2CCC(c3ccccc3OCCc3ccccn3)CC2)nc2ccccc21 [compound 97] |  | < 5.02
26 | CN1CCC[C@H]1COc1ccccc1C1CCN(Cc2nc3ccccc3n2C)CC1 [compound 98] |  | < 5.32
27 | Cn1c(CN2CCC(c3ccccc3OC3CCOCC3)CC2)nc2ccccc21 [compound 99] |  | 5.67
28 | CCOc1ccccc1C1CCN(Cc2nc3ccccc3n2C)CC1 [compound 100] |  | 5.54
29 | Cn1c(CN2CCC(c3ccccc3O[C@H]3CCOC3)CC2)nc2ccccc21 [compound 101] |  | 5.24
30 | Cn1c(CN2CCC(c3ccccc3OC3Cc4ccccc4C3)CC2)nc2ccccc21 [compound 102] |  | 5.82
31 | CC(Oc1ccccc1C1CCN(Cc2nc3ccccc3n2C)CC1)c1ccccc1 (stereo not shown) [compound 103] |  | < 5.25
32 | CCN1CC2(CCN(Cc3nc4ccccc4n3C)CC2)c2cc(Cl)ccc21 [compound 105] |  | 5.47
33 | CC(C)CN1CC2(CCN(Cc3nc4ccccc4n3C)CC2)c2ccccc21 [compound 106] |  | 5.59
34 | Cn1c(CN2CCC3(CC2)CN(CC2CCCO2)c2ccc(Cl)cc23)nc2ccccc21 (stereo not shown) [compound 107] |  | 5.18
35 | Cn1c(CN2CCC3(CC2)CN(Cc2cccnc2)c2ccc(Cl)cc23)nc2ccccc21 [compound 108] |  | < 5.06
36 | Cn1c(CN2CCC3(CC2)CN(Cc2ccccc2)c2ccccc23)nc2ccccc21 [compound 109] |  | 5.28
37 | CCN1CC2(CCN(Cc3nc4ccccc4n3C)CC2)c2ccccc21 [compound 110] |  | 5.30
38 | Cn1c(CN2CCC3(CC2)CN(CC(C)(C)C)c2ccccc23)nc2ccccc21 [compound 111] |  | 4.99
39 | Cn1c(CN2CCC3(CC2)CN(Cc2cccnc2)c2ccccc23)nc2ccccc21 [compound 112] |  | < 5.01
40 | CC(C)CN1CC2(CCN(Cc3nc4ccccc4n3C)CC2)c2cc(Cl)ccc21 [compound 113] |  | 5.36
41 | CCN1CC2(CCN(Cc3nc4ccccc4n3C)CC2)c2cc(F)ccc21 [compound 114] |  | 5.62
42 | CC(C)CN1CC2(CCN(Cc3nc4ccccc4n3C)CC2)c2cc(F)ccc21 [compound 115] |  | 5.19
43 | CC(C)CCN1CC2(CCN(Cc3nc4ccccc4n3C)CC2)c2ccccc21 [compound 116] |  | 5.51
44 | Cn1c(CN2CCC3(CC2)CN(CC2CCCO2)c2ccc(F)cc23)nc2ccccc21 (stereo not shown) [compound 117] |  | < 5.05

Row | Compound | EC50 [µM] | pEC50
45 | CCN1CC2(CCN(Cc3nc4ccccc4n3C)CC2)c2cc(C)ccc21 [compound 118] |  | 5.47
46 | Cc1ccc2c(c1)C1(CCN(Cc3nc4ccccc4n3C)CC1)CN2CC(C)C [compound 119] |  | 5.54
47 | Cc1ccc2c(c1)C1(CCN(Cc3nc4ccccc4n3C)CC1)CN2CCC(C)C [compound 120] |  | 5.57
48 | Cc1cc(C)c2c(c1)C1(CCN(Cc3nc4ccccc4n3C)CC1)CN2CCC(C)C [compound 121] |  | 5.94
49 | Cc1cc(C)c2c(c1)C1(CCN(Cc3nc4ccccc4n3C)CC1)CN2CC1CCCO1 (stereo not shown) [compound 123] |  | 5.30
50 | Cc1ccc2c(c1)C1(CCN(Cc3nc4ccccc4n3C)CC1)CN2CC1CCCO1 (stereo not shown) [compound 124] |  | 5.39
51 | Cc1cc(C)c2c(c1)C1(CCN(Cc3nc4ccccc4n3C)CC1)CN2CC(C)C [compound 125] |  | 5.41
52 | CCC(CC)CN1CC2(CCN(Cc3nc4ccccc4n3C)CC2)c2cc(C)cc(C)c21 [compound 126] |  | 5.22
53 | CCCCN1CC2(CCN(Cc3nc4ccccc4n3C)CC2)c2cc(Cl)ccc21 [compound 127] |  | 5.55
54 | Cn1c(CN2CCC3(CC2)CNc2ccc(Cl)cc23)nc2ccccc21 [compound 128] |  | < 5.05
55 | Cn1c(CN2CCC3(CC2)CN(CC2CC2)c2ccc(Cl)cc23)nc2ccccc21 [compound 129] |  | 5.60
56 | CCCN1CC2(CCN(Cc3nc4ccccc4n3C)CC2)c2ccccc21 [compound 130] |  | 5.51
57 | CN1CC2(CCN(Cc3nc4ccccc4n3C)CC2)c2cc(Cl)ccc21 [compound 131] |  | 5.75
58 | CCCCN1CC2(CCN(Cc3nc4ccccc4n3C)CC2)c2ccccc21 [compound 132] |  | 5.87
59 | CCC(C)CN1CC2(CCN(Cc3nc4ccccc4n3C)CC2)c2ccccc21 (stereo not shown) [compound 133] |  | 5.21
60 | Cn1c(CN2CCC3(CC2)CN(CC2CC2)c2ccccc23)nc2ccccc21 [compound 134] |  | 5.13
61 | CN1CC2(CCN(Cc3nc4ccccc4n3C)CC2)c2ccccc21 [compound 135] |  | 5.63
62 | CN1CC2(CCN(Cc3nc4ccccc4n3C)CC2)c2cc(F)ccc21 [compound 136] |  | 5.58
63 | CCCN1CC2(CCN(Cc3nc4ccccc4n3C)CC2)c2cc(F)ccc21 [compound 137] |  | < 5.10
64 | Cn1c(CN2CCC3(CC2)CN(CC2CC2)c2ccc(F)cc23)nc2ccccc21 [compound 138] |  | 5.07
